This is an account of results in patent publication US20090012011A1, “Novel Compounds” (SmithKline Beecham Corporation, priority 2006, published 2009).

SMILES strings stand for the structures.

Assay [1] concerns the target T1, TRPV4 channel receptors (Homo sapiens, UniProt Q9HBA0).
T1 construct: obtained using this method in human articular chondrocytes; endogenous in cells; host or cells: human articular chondrocytes
As to the kind of experiment: Ca2+ influx, Fura-2 fluorescence on FlexStation, human articular chondrocytes. The assay is classed as cell-based. The source says: (§1) Ca^2+ influx mediated through TRPV4 channel receptors can be measured using articular chondrocytes from such species as, but not limited to, human, rat, canine, rabbit, monkey, and bovine, using standard techniques in the art such as, but not limited to, Fura-2 (Invitrogen/Molecular Probes, Eugene, Oreg.) fluorescence using a FlexStation (manufactured by Molecular Devices, Sunnyvale, Calif.). Table 1 lists biological data for several representative compounds obtained using this method in bovine articular chondrocytes.
Table 2 lists biological data for several representative compounds obtained using this method in human articular chondrocytes.

For assay [2], the target named is T2, TRPV4 channel receptors (Bos taurus, UniProt A0A8F4X677).
T2 construct: obtained using this method in bovine articular chondrocytes; endogenous in cells; host or cells: bovine articular chondrocytes
As to the kind of experiment: Ca2+ influx, Fura-2 fluorescence on FlexStation, bovine articular chondrocytes. The assay is classed as cell-based.
Excerpt: as §1

T1 sequence (Q9HBA0 whole entry): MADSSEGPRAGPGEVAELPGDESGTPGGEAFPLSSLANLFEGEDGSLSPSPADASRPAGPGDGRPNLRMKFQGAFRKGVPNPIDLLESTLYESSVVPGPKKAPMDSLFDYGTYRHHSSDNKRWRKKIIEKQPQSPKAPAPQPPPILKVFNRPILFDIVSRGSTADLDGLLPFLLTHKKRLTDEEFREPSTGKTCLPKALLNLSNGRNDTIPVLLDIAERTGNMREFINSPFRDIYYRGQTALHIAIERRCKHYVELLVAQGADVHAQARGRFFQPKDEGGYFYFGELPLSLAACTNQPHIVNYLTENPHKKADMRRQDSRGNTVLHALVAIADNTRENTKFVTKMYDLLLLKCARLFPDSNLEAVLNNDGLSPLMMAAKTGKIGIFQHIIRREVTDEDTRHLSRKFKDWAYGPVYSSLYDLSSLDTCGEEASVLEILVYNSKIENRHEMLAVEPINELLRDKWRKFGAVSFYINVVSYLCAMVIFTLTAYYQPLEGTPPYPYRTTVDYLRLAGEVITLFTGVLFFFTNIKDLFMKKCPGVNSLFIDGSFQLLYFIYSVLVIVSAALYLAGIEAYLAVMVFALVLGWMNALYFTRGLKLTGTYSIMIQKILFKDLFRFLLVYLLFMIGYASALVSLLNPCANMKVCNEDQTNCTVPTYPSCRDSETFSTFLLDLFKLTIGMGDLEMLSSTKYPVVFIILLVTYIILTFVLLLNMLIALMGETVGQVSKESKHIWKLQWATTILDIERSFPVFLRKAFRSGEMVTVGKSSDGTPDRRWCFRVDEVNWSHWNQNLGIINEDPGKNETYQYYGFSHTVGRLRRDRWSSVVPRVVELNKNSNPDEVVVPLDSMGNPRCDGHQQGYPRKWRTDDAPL
T2 sequence (A0A8F4X677 1-871): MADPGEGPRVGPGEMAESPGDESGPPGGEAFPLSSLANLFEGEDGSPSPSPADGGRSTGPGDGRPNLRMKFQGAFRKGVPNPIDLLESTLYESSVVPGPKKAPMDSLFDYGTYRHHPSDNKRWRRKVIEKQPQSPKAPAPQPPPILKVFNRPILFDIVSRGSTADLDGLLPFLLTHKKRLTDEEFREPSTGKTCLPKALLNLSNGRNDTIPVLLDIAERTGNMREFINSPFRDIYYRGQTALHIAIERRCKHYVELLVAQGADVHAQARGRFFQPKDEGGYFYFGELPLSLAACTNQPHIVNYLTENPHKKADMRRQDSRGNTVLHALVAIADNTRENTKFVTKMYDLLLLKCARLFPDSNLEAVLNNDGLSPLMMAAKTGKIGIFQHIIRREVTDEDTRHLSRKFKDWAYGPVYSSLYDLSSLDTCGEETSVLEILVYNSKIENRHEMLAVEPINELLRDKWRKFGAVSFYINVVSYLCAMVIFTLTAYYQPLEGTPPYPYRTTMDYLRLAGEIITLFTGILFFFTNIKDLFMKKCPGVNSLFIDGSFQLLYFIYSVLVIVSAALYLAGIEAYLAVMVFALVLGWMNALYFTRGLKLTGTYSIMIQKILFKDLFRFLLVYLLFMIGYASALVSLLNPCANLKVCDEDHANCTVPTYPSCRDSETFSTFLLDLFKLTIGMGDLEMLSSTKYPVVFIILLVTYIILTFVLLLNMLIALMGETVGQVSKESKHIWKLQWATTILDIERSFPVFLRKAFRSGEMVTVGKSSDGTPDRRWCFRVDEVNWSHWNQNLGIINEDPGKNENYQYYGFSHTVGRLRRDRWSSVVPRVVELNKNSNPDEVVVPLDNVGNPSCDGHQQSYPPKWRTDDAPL

Take `CC(C)C[C@H](NC(=O)c1cc2ccccc2s1)C(=O)NC[C@@H]1CN(S(=O)(=O)c2ccc(F)cc2Cl)C[C@@H]1O` (single isomer, unassigned) [Example 2]: the EC50 in assay [1] fell in the range of 0.1 to 1 µM; in assay [2] it was 0.07 to 0.1 µM.
Consider `CC(C)C[C@H](NC(=O)c1cc2ccccc2s1)C(=O)NC[C@H]1CN(S(=O)(=O)c2ccc(Cl)cc2Cl)C[C@H]1O` (single isomer, unassigned) [Example 3], for which the concentration for a half-maximal effect (EC50) in assay [1] is 0.03 to 0.09 µM; in assay [2], 0.03 to 0.06 µM.
`CC(C)C[C@H](NC(=O)c1cc2ccccc2s1)C(=O)NC[C@@H]1CN(S(=O)(=O)c2ccc(F)cc2C(F)(F)F)C[C@@H]1O` (single isomer, unassigned) [Example 6] yielded an EC50 in assay [1] of 1 to 10 µM.

What is called EC50 is the concentration needed to bring the measured effect to its halfway point. A lower EC50 goes with an effect from little substance.
